Measurements from patent EP0603240B1, “SAFENING HERBICIDAL PYRAZOLYLSULFONYLUREAS” (priority 1991, dated 1993).

Tests used:
Type in all cases: in vivo
[1] = tested on: velvetleaf (Abutilon theophrasti); assay: Example 7, Procedure II: Herbicide No. 1 + metolachlor (No. 12) with antidotes
Summary of the method: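 Herbicide and antidote in acetone were mixed into silt loam soil used to cover seeded beds, followed by 0.6 cm overhead irrigation, then sub-irrigation in the greenhouse. Percent injury was scored against herbicide-alone and untreated controls, averaged over duplicates. Herbicide No. 1 was combined with metolachlor.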

[2] = tested on: barnyardgrass (Echinochloa crusgalli); assay: Example 11, Procedure II: Herbicide No. 1 + metazachlor (No. 14) with antidotes
Procedure: (§1) Containers were filled and compacted with a fumigated silt loam top soil to a depth of about 1.3 cm from the top of the container. A first container was designated as an untreated control, a second container was designated as a herbicide control, and a third container was designated as a herbicide + antidote test container. Each of the containers was seeded with a crop species. A measured amount of herbicide dispersed or dissolved in acetone was applied to a measured quantity of soil. To this same quantity of soil treated with herbicide, there was added a measured amount of antidote dispersed or dissolved in acetone. The quantity of soil treated with the herbicide and antidote was thoroughly mixed to incorporate the herbicide and antidote in the soil uniformly. The seed bed in the third container of soil was covered with the soil treated with the herbicide and antidote and the container was leveled. For each test series, the seed beds of the first and second containers were likewise covered by soil layers. the cover layer of the first container was not treated with herbicide or antidote.
(§2) The containers were then placed on a bench in a greenhouse and sub-irrigated as required for the duration of the test. […] Plant response is measured in terms of percent injury. Antidote efficacy is indicated as the difference in plant injury by the herbicide(s) without the antidote and with the antidote.
(§3) This procedure is the same as Procedure I, but modified in the manner that after incorporation of the chemicals (herbicide and antidote) the containers with the covered seedbed were treated with an initial overhead irrigation equivalent to 0.6 cm rainfall, then subsequently sub-irrigated as required on greenhouse benches.
(§4) In the series of greenhouse tests described below, for routine screening purposes the herbicide/antidote compositions were tested in crop/weed combinations involving corn as the crop and either or both of the weeds barnyardgrass (Echinochloa crusgalli), a monocotyledonous weed, and velvetleaf (Abutilon theophrasti), a dicotyledonous weed. In the tables below, these weeds are indicated by the symbols "BYG" and "VL", respectively.
In this example, yet another α-chloroacetanilide co-herbicide, metazachlor (Herbicide No. 14) was combined with Herbicide No. 1 for investigation of the effect of various safeners on that composition. Metazachlor is the active ingredient in the commercial herbicide BUTISAN® S, used here as a 500 g/L formulation.

corn = assay: Example 21, Procedure II: Herbicide No. 1 + SUTAN PLUS (butylate + antidote) with antidotes
Procedure: as §1, §2, §3
(§5) In this example, tests were conducted as in the preceding Examples 18-20, except here the co-herbicidal component was SUTAN® PLUS, a commercial product comprising as the active herbicidal ingredient the compound butylate (Herbicide No. 10) and an antidote […] (Antidote No. 1). Again, the antidotal compounds herein were Nos. 1, 2, 7, 13 and 15. Procedure II was used.

[3] = tested on: barnyardgrass (Echinochloa crusgalli); assay: as above
Procedure: as §1, §2, §3, §4, §5

[4] = tested on: velvetleaf (Abutilon theophrasti); assay: as above
Procedure: as §1, §2, §3, §4, §5

[5] = Herbicide No.1 0.14 + No.12 3.36 kg/ha + antidote 2.24 kg/ha
[6] = Herbicide No.1 0.14 + No.12 3.36 kg/ha + antidote 8.96 kg/ha
[7] = Herbicide No.1 0.56 + No.12 3.36 kg/ha + antidote 2.24 kg/ha
[8] = Herbicide No.1 0.56 + No.12 3.36 kg/ha + antidote 8.96 kg/ha
[9] = Herbicide No.1 0.56 kg/ha + Herbicide No.14 3.36 kg/ha, antidote rate 2.24 kg/ha
[10] = Herbicide No.1 0.56 kg/ha + Herbicide No.14 3.36 kg/ha, antidote rate 8.96 kg/ha
[11] = Herbicide No.1 1.12 kg/ha + Herbicide No.14 3.36 kg/ha, antidote rate 2.24 kg/ha
[12] = Herbicide No.1 1.12 kg/ha + Herbicide No.14 3.36 kg/ha, antidote rate 8.96 kg/ha
[13] = Herbicide No.1 0.56 kg/ha + SUTAN + 8.96 kg/ha, antidote 2.24 kg/ha
[14] = Herbicide No.1 0.56 kg/ha + SUTAN + 8.96 kg/ha, antidote 8.96 kg/ha
[15] = Herbicide No.1 1.12 kg/ha + SUTAN + 8.96 kg/ha, antidote 2.24 kg/ha
[16] = Herbicide No.1 1.12 kg/ha + SUTAN + 8.96 kg/ha, antidote 8.96 kg/ha

Structure (SMILES) | % Injury VL [1, 5] | % Injury VL [1, 6] | % Injury VL [1, 7] | % Injury VL [1, 8] | % Injury BYG [2, 9] | % Injury BYG [2, 10] | % Injury BYG [2, 11] | % Injury BYG [2, 12] | % Injury Corn (corn; [13]) | % Injury Corn (corn; [14]) | % Injury Corn (corn; [15]) | % Injury Corn (corn; [16]) | % Injury BYG [3, 13] | % Injury BYG [3, 14] | % Injury BYG [3, 15] | % Injury BYG [3, 16] | % Injury VL [4, 13] | % Injury VL [4, 14] | % Injury VL [4, 15] | % Injury VL [4, 16]
C=CCN(CC=C)C(=O)C(Cl)Cl [compound 1] | 70% | 75% | 85% | 80% | 99% | 100% | 99% | 100% | 15% | 15% | 30% | 20% | 0% | 25% | 10% | 35% | 40% | 65% | 65% | 60%
O=C1OC(=O)c2cccc3cccc1c23 [compound 2] | 75% | 75% | 80% | 85% | 99% | 99% | 100% | 100% | 10% | 5% | 0% | 15% | 5% | 10% | 45% | 5% | 55% | 65% | 70% | 70%
